How the values were obtained:
[1] = tested on: tobacco budworm (Heliothis virescens); assay: Activity against tobacco budworm; type: in vivo; settings: 6 days; for pest or weed control at 400 ppm / TBW activity (rated on live and dead larvae and size of live larvae): 400 ppm
How it was run: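 Compounds formulated in acetone/EtOH with aqueous Tween 20 and sprayed at 400 and 50 ppm onto half-strength lepidopteran diet cups seeded 1 h earlier with 18–20 eggs. After 6 days at room temperature, activity rated from live and dead larval counts and live larva size.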

[2] = tested on: Leptosphaeria nodorum (glume blotch); assay: Foliar spray fungicide test, Leptosphaeria nodorum (glume blotch) on wheat; settings: for pest or weed control at 400 µg/mL: Parastagonospora nodorum, in Triticum aestivum, foliar, read-out: LETPNO disease control, host wheat, 400 ppm (+++: 100 ppm); for LETPNO disease control: host wheat, 400 ppm (+++: 100 ppm)
Description: (§3) The test compounds were formulated for application by dissolving 50 mg of the compound into 1.25 ml of solvent. The solvent was prepared by mixing 50 ml of "Tween 20" (polyoxyethylene (20) sorbitan monolaurate emulsifier) with 475 ml of acetone and 475 ml of ethanol. The solvent/compound solution was diluted to 125 ml with deionized water. The resulting formulation contains 400 ppm test chemical. Lower concentrations were obtained by serial dilution with the solvent-surfactant mixture.
(§4) The formulated test compounds were applied by foliar spray.
(§5) The formulated technical compounds were sprayed on all foliar surfaces of the host plants to past run-off. Single pots of each host plant were placed on raised, revolving pedestals in a fume hood. Test solutions were sprayed on all foliar surfaces. All treatments were allowed to dry and the plants were inoculated with the appropriate pathogens within 24 hours.
(§6) The effectiveness of test compounds in controlling disease was rated using the following scale.

[3] = tested on: Plasmopara viticola (downy mildew); assay: Foliar spray fungicide test, Plasmopara viticola (downy mildew) on grape; settings: for pest or weed control at 400 µg/mL: Plasmopara viticola, foliar, read-out: PLASVI disease control
Description: as §3, §4, §5, §6

[4] = tested on: aster leafhopper (Macrosteles fascifrons); assay: whole plant or invertebrate; type: in vivo; settings: for mortality at 50 ppm / mortality at 400 ppm: Macrosteles fascifrons, 24 h, read-out: ALH percent mortality; for mortality at 400 ppm / ALH percent mortality: 400 ppm; for ALH percent mortality: 24 hours, 1440 min
How it was run: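 Compounds were formulated in water with Tween 20 and acetone/EtOH and tested at 400 and 50 ppm. Percent mortality was scored after 24 h at room temperature.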

[5] = tested on: Erysiphe graminis tritici (powdery mildew); assay: Foliar spray fungicide test, Erysiphe graminis tritici (powdery mildew) on wheat; settings: for pest or weed control at 400 µg/mL: Blumeria graminis, in Triticum aestivum, foliar, read-out: ERYSGT disease control, host wheat, 400 ppm (+++: 100 ppm); for ERYSGT disease control: host wheat, 400 ppm (+++: 100 ppm)
Description: as §3
The formulated test compounds were applied by foliar spray. The following plant pathogens and their corresponding plants were employed.
as §5, §6

[6] = tested on: two spotted spider mite (Tetranychus urticae); assay: whole plant or invertebrate; settings: 72 h; for mortality at 400 ppm: read-out: TSSM activity (percent based on mites present in plants sprayed with solvent alone), 400 ppm, squash plants, three days after treatment
[7] = tested on: Puccinia recondita tritici (leaf rust); assay: Foliar spray fungicide test, Puccinia recondita tritici (leaf rust) on wheat; settings: for pest or weed control at 400 µg/mL: Puccinia recondita, in Triticum aestivum, foliar, read-out: PUCCRT disease control, host wheat, 400 ppm (+++: 100 ppm); for PUCCRT disease control: host wheat, 400 ppm (+++: 100 ppm)
[8] = tested on: Pyricularia oryzae (rice blast); assay: whole plant or invertebrate; type: in vivo; settings: foliar spray, 400 ppm (+++: 100 ppm); for pest or weed control at 400 µg/mL: Pyricularia oryzae, foliar, read-out: PYRIOR disease control, host rice; for PYRIOR disease control: host rice
[9] = tested on: Southern corn rootworm (Diabrotica undecimpuctata howardi Barber); assay: whole plant or invertebrate; type: in vivo; settings: 3-4 days, read-out: SCRW mortality
[10] = tested on: cotton aphid (Aphis gossypii); assay: whole plant or invertebrate; settings: 72 h; for mortality at 50 ppm: read-out: CA activity (percent based on aphids present in plants sprayed with solvent alone), 50 ppm, squash plants, three days after treatment; for mortality at 400 ppm: read-out: CA activity (percent based on aphids present in plants sprayed with solvent alone), 400 ppm, squash plants, three days after treatment
[11] = tested on: beet armyworm (Spodoptera exiqua); assay: Activity against beet armyworm; type: in vivo; settings: 6 days; for pest or weed control at 50 ppm / pest or weed control at 400 ppm: Spodoptera, 144 h, read-out: BAW activity (rated on live and dead larvae and size of live larvae); for pest or weed control at 400 ppm / BAW activity (rated on live and dead larvae and size of live larvae): 400 ppm
How it was run: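 Compounds formulated in acetone/EtOH with aqueous 0.05% Tween 20, tested at 400 and 50 ppm. Half-strength lepidopteran agar diet cups carrying 35-40 beet armyworm eggs sprayed through a flat-fan nozzle, dried, sealed and held 6 days at room temperature. Rated by live and dead larval counts and live larval size.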

[12] = tested on: Southern corn rootworm (Diabrotica undecimpuctata howardi Barber); assay: whole plant or invertebrate; type: in vivo; settings: 400 ppm, soil concentration of 24 ppm, 3-4 days, read-out: SCRW mortality
Description: (§1) The compounds identified in Table I were tested for miticidal and insecticidal activity against eight species. The following abbreviations are used in the Table III:
SCRW refers to southern corn rootworm
(§2) In conducting evaluations of insecticidal activity, each test compound was formulated as a 400 ppm solution, and this solution was then diluted with water to give lesser concentrations. The 400 ppm solution was prepared by combining 19.2 mL of 0.05% solution of Tween 20 (polyoxyethylene (20) sorbitan monolaurate) in water with a solution of 8 mg of the compound in 0.8 mL of acetone/EtOH (9/1).
Activity on Southern corn rootworm (Diabrotica undecimpuctata howardi Barber) was evaluated by adding one mL of test solution containing a predetermined concentration of test compound to a cup containing a kernel of corn in 16 g of sterile soil. This produces a soil concentration of 24 ppm. After 1.5 to 2 hours of drying, five 4th instar corn rootworm larvae were added to the individual cups. Mortality was measured at 3-4 days by emptying the cup onto a pan and inspecting the soil for live rootworms.

[13] = tested on: two spotted spider mite (Tetranychus urticae); settings: 400 ppm, squash plants, three days after treatment, 4320 min
[14] = tested on: cotton aphid (Aphis gossypii); settings: 400 ppm, squash plants, three days after treatment, 4320 min
[15] = tested on: German cockroach (Blattella germanicus); assay: whole plant or invertebrate; type: in vivo; settings: 240 h, ten days, read-out: GECR activity (rated on live and dead insects)
Description: as §1
GECR refers to German cockroach
as §2
Activity against German cockroach (Blattella germanicus) was evaluated as follows. 8 mL of alfalfa based green insect diet material was dispensed into a one ounce diet cup. The cups were then sprayed with formulated material through a flat-fan nozzle. The test was run using concentrations of 400 ppm and 50 ppm. Treated cups were air dried for 24 hours and infested with five late third or early fourth instar German cockroaches. The cups were capped and held for ten days in an environmental growth chamber at a temperature of […]. Activity was then rated based on the total number of live and dead insects.

[16] = Heliothis virescens, 144 h, read-out: TBW activity (rated on live and dead larvae and size of live larvae)

| Compound | pest or weed control at 400 ppm [1, 16] | pest or weed control at 400 µg/mL [2] | pest or weed control at 400 µg/mL [3] | mortality at 50 ppm [4] | mortality at 400 ppm [4] | pest or weed control at 400 µg/mL [5] | mortality at 400 ppm [6] | pest or weed control at 400 µg/mL [7] | pest or weed control at 400 µg/mL [8] | mortality at 50 ppm [9] | mortality at 50 ppm [10] | mortality at 400 ppm [10] | pest or weed control at 50 ppm [11] | pest or weed control at 400 ppm [11] | mortality at 24 ppm [12] | TBW activity (rated on live and dead larvae and size of live larvae) [1] | LETPNO disease control [2] | TSSM activity (percent based on mites present in plants sprayed with solvent alone) [13] | ALH percent mortality [4] | CA activity (percent based on aphids present in plants sprayed with solvent alone) [14] | other results |
| --- | --- | --- | --- | --- | --- | --- | --- | --- | --- | --- | --- | --- | --- | --- | --- | --- | --- | --- | --- | --- | --- |
| Fc1cccc2c(OCCc3ccc(Oc4ccc(C(F)(F)F)cn4)cc3)ncnc12 [Compound 27, 8-Fluoro-4-(2-(4-(5-(trifluoromethyl)-2-pyridinyloxy)phenyl)ethoxy)quinazoline] | 100% | 0 to 19% | 90 to 100% | 100% | 100% | 90 to 100% | 100% | 90 to 100% | 90 to 100% | 100% | 90% | 100% | 100% | 100% | 100% | – | – | – | – | – | – |
| Fc1cccc2c(OCCc3ccc(Oc4nc(Cl)c(Cl)cc4Cl)cc3)ncnc12 [Compound 42] | – | – | 20 to 89% | – | – | – | – | – | – | – | – | – | – | – | – | 0 | - (0-19% control at 400 ppm) | 0% | 60% | 0% | ERYSGT disease control [5]: - (0-19% control at 400 ppm); PUCCRT disease control [7]: + (20-89% control at 400 ppm); PYRIOR disease control [8]: - (0-19% control at 400 ppm); BAW activity (rated on live and dead larvae and size of live larvae) [11]: 0 |
| Fc1cccc2c(OCCc3ccc(Oc4nc(Cl)c(Cl)cc4Cl)cc3)ncnc12 [Compound 44] | – | – | – | – | – | – | – | – | – | – | – | – | – | – | 100% | 100 | + (20-89% control at 400 ppm) | 50% | 0% | 100% | PLASVI disease control ([3]; host grape, foliar spray, 400 ppm (+++: 100 ppm)): + (20-89% control at 400 ppm); mortality at 400 ppm [15]: 20%; ERYSGT disease control [5]: +++ (90-100% control at 100 ppm); PUCCRT disease control [7]: +++ (90-100% control at 100 ppm); PYRIOR disease control [8]: + (20-89% control at 400 ppm); BAW activity (rated on live and dead larvae and size of live larvae) [11]: 100 |
| c1ccc2c(OCCc3ccc(Oc4cnccn4)cc3)ncnc2c1 [Compound 51] | 100% | 90 to 100% | 90 to 100% | 100% | 100% | 90 to 100% | 0% | 0 to 19% | 90 to 100% | 0% | 0% | 0% | 100% | 100% | 100% | – | – | – | – | – | pest or weed control at 50 ppm ([1]; Heliothis virescens, 144 h, 50 ppm, read-out: TBW activity (rated on live and dead larvae and size of live larvae)): 100%; mortality at 50 ppm ([15]; 50 ppm): 0%; mortality at 400 ppm [15]: 0%; mortality at 50 ppm ([6]; read-out: TSSM activity (percent based on mites present in plants sprayed with solvent alone), 50 ppm, squash plants, three days after treatment): 0% |

— US5326766A, “4-(2-(4-(2-pyridinyloxy)phenyl)ethoxy)quinazoline and analogues thereof” (priority 1992, dated 1994)
